Assay results reported in US20250129070A1, “BIFUNCTIONAL ANDROGEN RECEPTOR COMPOUNDS” (priority 2023, published 2025).

Key:
[1] = system: AR / CBP ternary complex; experiment: Ternary complex formation assay (sandwich ELISA, AR capture / CBP detection) in VCaP cell lysates; format: cell-based; details: 1.5 hours treatment, sandwich ELISA (AR capture, CBP or p300 detection)
Procedure, shortened: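 Anti-AR (AR 441)-coated plates capture AR from lysates of VCaP cells grown ≥3 days at 50K/well in 5% charcoal-stripped FBS, dosed with bifunctional for 1.5 h and lysed 30 min at 4 °C. Co-captured CBP/p300 is probed with rabbit mAb and HRP anti-rabbit, then QuantaRed fluorescence (570/585) is read at 0, 5 and 15 min.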

[2] = system: VCaP cells; experiment: VCaP growth inhibition assay; format: cell-based; details: 30 pM R1881, 9 days, CTG
Procedure, shortened: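 Growth read by CTG luminescence after 9-day exposure to compound (final 100 nM–10 fM, 1:5 steps) plus 30 pM R1881, in phenol red-free DMEM with 5% CSS. Cells pre-incubated 72 h before dosing; IC50 by nonlinear 4-parameter regression.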

COc1cc(OC2C(C)(C)C(NC(=O)c3ccc(N4CCC(C5CCN(c6ccc(-c7cc8cccc(-c9nn(C%10CCOCC%10)c%10c9CN(C(C)=O)CC%10)c8cn7)cn6)CC5)CC4)cc3)C2(C)C)ccc1C#N (stereo not drawn) [Compound 267, 4-[4-[1-[5-[8-(5-acetyl-1-tetrahydropyran-4-yl-6,7-dihydro-4H-pyrazolo[4,3-c]pyridin-3-yl)-3-isoquinolyl]-2-pyridyl]-4-piperidyl]-1-piperidyl]-N-[3-(4-cyano-3-methoxy-phenoxy)-2,2,4,4-tetramethyl-cyclobutyl]benzamide]
EC50 [1]: 1 to 10 nM
IC50 [2]: 1 to 100 nM

COc1cc(OC2C(C)(C)C(NC(=O)c3ccc(N4CCC(CN5CCC(n6nc(-c7cccc8cc(-c9cnn(C)c9)ncc78)c7c6CCN(C(C)=O)C7)CC5)CC4)cc3)C2(C)C)ccc1C#N (stereo not drawn) [Compound 253, 4-[4-[[4-[5-acetyl-3-[3-(1-methylpyrazol-4-yl)-8-isoquinolyl]-6,7-dihydro-4H-pyrazolo[4,3-c]pyridin-1-yl]-1-piperidyl]methyl]-1-piperidyl]-N-[3-(4-cyano-3-methoxy-phenoxy)-2,2,4,4-tetramethyl-cyclobutyl]benzamide]
EC50 [1]: < 1 nM
IC50 [2]: ≤ 0.1 nM

CC(=O)N1CCc2c(c(-c3cccc4cc(-c5ccc(COc6ncc(C(=O)NC7C(C)(C)C(Oc8ccc(C#N)c(Cl)c8)C7(C)C)cn6)nc5)ncc34)nn2C2CCOCC2)C1 (stereo not drawn) [Compound 71, 2-[[5-[8-(5-acetyl-1-tetrahydropyran-4-yl-6,7-dihydro-4H-pyrazolo[4,3-c]pyridin-3-yl)-3-isoquinolyl]-2-pyridyl]methoxy]-N-[3-(3-chloro-4-cyano-phenoxy)-2,2,4,4-tetramethyl-cyclobutyl]pyrimidine-5-carboxamide]
EC50 [1]: < 1 nM
IC50 [2]: 1 to 100 nM

COc1cc(OC2C(C)(C)C(NC(=O)c3ccc(N4CC5(CCC(N6CCC(n7nc(N8CCCc9cc(-c%10ccn(C)n%10)c(C(F)F)cc98)c8c7CCN(C(C)=O)C8)CC6)CC5)C4)cc3)C2(C)C)ccc1C#N (stereo not drawn) [Compound 432, 4-[7-[4-[5-acetyl-3-[7-(difluoromethyl)-6-(1-methylpyrazol-3-yl)-3,4-dihydro-2H-quinolin-1-yl]-6,7-dihydro-4H-pyrazolo[4,3-c]pyridin-1-yl]-1-piperidyl]-2-azaspiro[3.5]nonan-2-yl]-N-[3-(4-cyano-3-methoxy-phenoxy)-2,2,4,4-tetramethyl-cyclobutyl]benzamide]
EC50 [1]: < 1 nM
IC50 [2]: ≤ 0.1 nM

COc1cc(OC2C(C)(C)C(NC(=O)c3ccc(N4CCC(N5CCC(n6nc(N7CCCc8cc(-c9cnn(C)c9)c(C(F)F)cc87)c7c6CCN(C(C)=O)C7)CC5)C(F)(F)C4)cc3)C2(C)C)ccc1C#N (stereo not drawn) [Compound 302, 4-[4-[4-[5-acetyl-3-[7-(difluoromethyl)-6-(1-methylpyrazol-4-yl)-3,4-dihydro-2H-quinolin-1-yl]-6,7-dihydro-4H-pyrazolo[4,3-c]pyridin-1-yl]-1-piperidyl]-3,3-difluoro-1-piperidyl]-N-[3-(4-cyano-3-methoxy-phenoxy)-2,2,4,4-tetramethyl-cyclobutyl]benzamide]
EC50 [1]: < 1 nM
IC50 [2]: ≤ 0.1 nM

CC(=O)N1CCc2c(c(N3CCCc4cnccc43)nn2C2CCN(C(=O)C3CCN(c4ncc(C(=O)NC5C(C)(C)C(Oc6ccc(C#N)c(Cl)c6)C5(C)C)cn4)CC3)CC2)C1 (stereo not drawn) [Compound 128, 2-[4-[4-[5-acetyl-3-(3,4-dihydro-2H-1,6-naphthyridin-1-yl)-6,7-dihydro-4H-pyrazolo[4,3-c]pyridin-1-yl]piperidine-1-carbonyl]-1-piperidyl]-N-[3-(3-chloro-4-cyano-phenoxy)-2,2,4,4-tetramethyl-cyclobutyl]pyrimidine-5-carboxamide]
EC50 [1]: > 100 nM
IC50 [2]: > 100 nM

C[C@@H]1CC(=O)Nc2cccc(-c3ccc4c(c3)c(-c3cnn(C)c3)nn4CCN3CCN(c4ncc(C(=O)NC5C(C)(C)C(Oc6ccc(C#N)c(Cl)c6)C5(C)C)cn4)CC3)c2N1 (stereo partly drawn) [Compound 56, N-[3-(3-chloro-4-cyano-phenoxy)-2,2,4,4-tetramethyl-cyclobutyl]-2-[4-[2-[5-[(4R)-4-methyl-2-oxo-1,3,4,5-tetrahydro-1,5-benzodiazepin-6-yl]-3-(1-methylpyrazol-4-yl)indazol-1-yl]ethyl]piperazin-1-yl]pyrimidine-5-carboxamide]
EC50 [1]: < 1 nM
IC50 [2]: 0.1 to 1 nM

Cn1c(=O)n(C)c2cc(N3CCCc4cc(-c5ccc(CCC6CCN(c7ncc(C(=O)NC8C(C)(C)C(Oc9ccc(C#N)c(Cl)c9)C8(C)C)cn7)CC6)nc5)c(C(F)F)cc43)ccc21 (stereo not drawn) [Compound 233, N-[3-(3-chloro-4-cyano-phenoxy)-2,2,4,4-tetramethyl-cyclobutyl]-2-[4-[2-[5-[7-(difluoromethyl)-1-(1,3-dimethyl-2-oxo-benzimidazol-5-yl)-3,4-dihydro-2H-quinolin-6-yl]-2-pyridyl]ethyl]-1-piperidyl]pyrimidine-5-carboxamide]
EC50 [1]: 1 to 10 nM
IC50 [2]: > 100 nM

COc1cc(OC2C(C)(C)C(NC(=O)c3ccc(N4CC5(CCC(N6CCC(n7nc(-c8cccc9cc(-c%10cnn(C)c%10)ncc89)c8c7CCN(C(C)=O)C8)CC6)CC5)C4)cc3)C2(C)C)ccc1C#N (stereo not drawn) [Compound 448, 4-[7-[4-[5-acetyl-3-[3-(1-methylpyrazol-4-yl)-8-isoquinolyl]-6,7-dihydro-4H-pyrazolo[4,3-c]pyridin-1-yl]-1-piperidyl]-2-azaspiro [3.5]nonan-2-yl]-N-[3-(4-cyano-3-methoxy-phenoxy)-2,2,4,4-tetramethyl-cyclobutyl]benzamide]
EC50 [1]: < 1 nM
IC50 [2]: 0.1 to 1 nM

CC(=O)N1CCc2c(c(N3CCCc4cc(-c5cnn(C)c5)c(C)cc43)nn2C2CCN(CC3CCN(c4ncc(C(=O)NC5C(C)(C)C(Oc6ccc(C#N)c(C)c6C)C5(C)C)cn4)CC3(C)C)CC2)C1 (stereo not drawn) [Compound 465, 2-[4-[[4-[5-acetyl-3-[7-methyl-6-(1-methylpyrazol-4-yl)-3,4-dihydro-2H-quinolin-1-yl]-6,7-dihydro-4H-pyrazolo[4,3-c]pyridin-1-yl]-1-piperidyl]methyl]-3,3-dimethyl-1-piperidyl]-N-[3-(4-cyano-2,3-dimethyl-phenoxy)-2,2,4,4-tetramethyl-cyclobutyl]pyrimidine-5-carboxamide]
EC50 [1]: < 1 nM
IC50 [2]: 0.1 to 1 nM

CC(=O)N1CCc2c(c(N3CCCc4cc(-c5cnn(C)c5)c(C)cc43)nn2C2CCN(CC3CCN(c4ncc(C(=O)NC5C(C)(C)C(Oc6ccc(C#N)c(Cl)c6)C5(C)C)cn4)CC3(C)C)CC2)C1 (stereo not drawn) [Compound 446, 2-[4-[[4-[5-acetyl-3-[7-methyl-6-(1-methylpyrazol-4-yl)-3,4-dihydro-2H-quinolin-1-yl]-6,7-dihydro-4H-pyrazolo[4,3-c]pyridin-1-yl]-1-piperidyl]methyl]-3,3-dimethyl-1-piperidyl]-N-[3-(3-chloro-4-cyano-phenoxy)-2,2,4,4-tetramethyl-cyclobutyl]pyrimidine-5-carboxamide]
EC50 [1]: < 1 nM
IC50 [2]: 0.1 to 1 nM

CC(=O)N1CCc2c(c(N3CCCc4cc(-c5cnn(C)c5)c(C(F)F)cc43)nn2C2CCN(Cc3cn(CCc4ncc(C(=O)NC5C(C)(C)C(Oc6ccc(C#N)c(Cl)c6)C5(C)C)cn4)nn3)CC2)C1 (stereo not drawn) [Compound 15, 2-[2-[4-[[4-[5-acetyl-3-[7-(difluoromethyl)-6-(1-methylpyrazol-4-yl)-3,4-dihydro-2H-quinolin-1-yl]-6,7-dihydro-4H-pyrazolo[4,3-c]pyridin-1-yl]-1-piperidyl]methyl]triazol-1-yl]ethyl]-N-[3-(3-chloro-4-cyano-phenoxy)-2,2,4,4-tetramethyl-cyclobutyl]pyrimidine-5-carboxamide]
EC50 [1]: 10 to 100 nM
IC50 [2]: > 100 nM

CC(=O)N1CCc2c(c(N3CCCc4cc(-c5cnn(C)c5)c(C(F)F)cc43)nn2CCCN(C)c2ncc(C(=O)NC3C(C)(C)C(Oc4ccc(C#N)c(Cl)c4)C3(C)C)cn2)C1 (stereo not drawn) [Compound 44, 2-[3-[5-acetyl-3-[7-(difluoromethyl)-6-(1-methylpyrazol-4-yl)-3,4-dihydro-2H-quinolin-1-yl]-6,7-dihydro-4H-pyrazolo[4,3-c]pyridin-1-yl]propyl-methyl-amino]-N-[3-(3-chloro-4-cyano-phenoxy)-2,2,4,4-tetramethyl-cyclobutyl]pyrimidine-5-carboxamide]
EC50 [1]: > 100 nM
IC50 [2]: > 100 nM

COc1cc(OC2C(C)(C)C(NC(=O)c3ccc(N4CCC(OC5CCC(n6nc(N7CCCc8cc(-c9cnn(C)c9)c(C(F)F)cc87)c7c6CCN(C(C)=O)C7)CC5)CC4)cc3)C2(C)C)ccc1C#N (stereo not drawn) [Compound 309, 4-[4-[4-[5-acetyl-3-[7-(difluoromethyl)-6-(1-methylpyrazol-4-yl)-3,4-dihydro-2H-quinolin-1-yl]-6,7-dihydro-4H-pyrazolo[4,3-c]pyridin-1-yl]cyclohexoxy]-1-piperidyl]-N-[3-(4-cyano-3-methoxy-phenoxy)-2,2,4,4-tetramethyl-cyclobutyl]benzamide]
EC50 [1]: < 1 nM
IC50 [2]: 0.1 to 1 nM

CC(=O)N1CCc2c(c(N3CCCc4cc(-c5cnn(C)c5)c(C(F)F)cc43)nn2C2CCN(C3CCN(c4ncc(C(=O)NC5C(C)(C)C(Oc6ccc(C#N)c(Cl)c6)C5(C)C)cn4)CC3)C2)C1 (stereo not drawn) [Compound 12, 2-[4-[3-[5-acetyl-3-[7-(difluoromethyl)-6-(1-methylpyrazol-4-yl)-3,4-dihydro-2H-quinolin-1-yl]-6,7-dihydro-4H-pyrazolo[4,3-c]pyridin-1-yl]pyrrolidin-1-yl]-1-piperidyl]-N-[3-(3-chloro-4-cyano-phenoxy)-2,2,4,4-tetramethyl-cyclobutyl]pyrimidine-5-carboxamide]
EC50 [1]: 1 to 10 nM
IC50 [2]: 1 to 100 nM
